Measurements as given in the supplement of paper PMC10307832.

How the values were obtained:
Assay in all cases: relative viability (nuclei count vs DMSO), 5 days (fraction); higher = more cells survive
H3255 = system: H3255
Method in brief: (§1)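 Lung cancer cell lines were pin-tool dosed in 1536-well plates on the day after seeding, with either a lone drug or a fixed anchor-drug dose plus five library-drug doses (not always all listed) in √10 steps. Nuclei were counted on 4× images after 5 days. Relative viability is the ratio of treated-well to vehicle-well nuclei counts, with each value a median of duplicate plates.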

NCI-H650 = system: NCI-H650
Method in brief: as §1

NCI-H2087 = system: NCI-H2087
Method in brief: as §1

NCI-H520 = system: NCI-H520
Method in brief: as §1

NCI-H2126 = system: NCI-H2126
Method in brief: as §1

NCI-H1915 = system: NCI-H1915
Method in brief: as §1

ChaGo-K-1 = system: ChaGo-K-1
Method in brief: as §1

NCI-H1666 = system: NCI-H1666
Method in brief: as §1

NCI-H661 = system: NCI-H661
Method in brief: as §1

EPLC-272H = system: EPLC-272H
Method in brief: as §1

PC-14 = system: PC-14
Method in brief: as §1

NCI-H322M = system: NCI-H322M
Method in brief: as §1

NCI-H23 = system: NCI-H23
Method in brief: as §1

RERF-LC-KJ = system: RERF-LC-KJ
Method in brief: as §1

COR-L 105 = system: COR-L 105
Method in brief: as §1

NCI-H2347 = system: NCI-H2347
Method in brief: as §1

HCC-78 = system: HCC-78
Method in brief: as §1

201T = system: 201T
Method in brief: as §1

HCC-827 = system: HCC-827
Method in brief: as §1

LCLC-97TM1 = system: LCLC-97TM1
Method in brief: as §1

NCI-H2405 = system: NCI-H2405
Method in brief: as §1

NCI-H647 = system: NCI-H647
Method in brief: as §1

LC-2-ad = system: LC-2-ad
Method in brief: as §1

Structure (SMILES): CC1(C)CCC(c2ccc(Cl)cc2)=C(CN2CCN(c3ccc(C(=O)NS(=O)(=O)c4ccc(N[C@H](CCN5CCOCC5)CSc5ccccc5)c(S(=O)(=O)C(F)(F)F)c4)cc3)CC2)C1 [Navitoclax] + COc1cc2c(Oc3ccc(NC(=O)C4(C(=O)Nc5ccc(F)cc5)CC4)cc3F)ccnc2cc1OCCCN1CCOCC1 [Foretinib] (partner 0.25 µM)
- relative viability (H3255; first compound 0.005 µM): 0.884
- relative viability (H3255; first compound 0.01581 µM): 0.973
- relative viability (H3255; first compound 0.05 µM): 0.764
- relative viability (H3255; first compound 0.1581 µM): 0.861
- relative viability (H3255; first compound 0.5 µM): 0.787
- relative viability (NCI-H650; first compound 0.005 µM): 1.05
- relative viability (NCI-H650; first compound 0.01581 µM): 1.15
- relative viability (NCI-H650; first compound 0.05 µM): 1
- relative viability (NCI-H650; first compound 0.1581 µM): 1.04
- relative viability (NCI-H650; first compound 0.5 µM): 1.07
- relative viability (NCI-H2087; first compound 0.005 µM): 1.07
- relative viability (NCI-H2087; first compound 0.01581 µM): 1.08
- relative viability (NCI-H2087; first compound 0.1581 µM): 0.953
- relative viability (NCI-H2087; first compound 0.5 µM): 1.07
- relative viability (NCI-H520; first compound 0.01581 µM): 0.985
- relative viability (NCI-H520; first compound 0.05 µM): 0.892
- relative viability (NCI-H520; first compound 0.1581 µM): 0.738
- relative viability (NCI-H520; first compound 0.5 µM): 0.61
- relative viability (NCI-H2126; first compound 0.005 µM): 1.25
- relative viability (NCI-H2126; first compound 0.01581 µM): 1.17
- relative viability (NCI-H2126; first compound 0.1581 µM): 1.14
- relative viability (NCI-H2126; first compound 0.5 µM): 1.19
- relative viability (NCI-H1915; first compound 0.005 µM): 1.08
- relative viability (NCI-H1915; first compound 0.01581 µM): 1.12
- relative viability (NCI-H1915; first compound 0.05 µM): 1.11
- relative viability (NCI-H1915; first compound 0.1581 µM): 1.02
- relative viability (NCI-H1915; first compound 0.5 µM): 1.07
- relative viability (ChaGo-K-1; first compound 0.005 µM): 1.04
- relative viability (ChaGo-K-1; first compound 0.01581 µM): 0.94
- relative viability (ChaGo-K-1; first compound 0.05 µM): 0.537
- relative viability (ChaGo-K-1; first compound 0.1581 µM): 0.9
- relative viability (ChaGo-K-1; first compound 0.5 µM): 0.932
- relative viability (NCI-H1666; first compound 0.005 µM): 0.941
- relative viability (NCI-H1666; first compound 0.01581 µM): 1.04
- relative viability (NCI-H1666; first compound 0.05 µM): 0.965
- relative viability (NCI-H1666; first compound 0.1581 µM): 0.998
- relative viability (NCI-H1666; first compound 0.5 µM): 0.964
- relative viability (NCI-H661; first compound 0.005 µM): 0.984
- relative viability (NCI-H661; first compound 0.01581 µM): 1.06
- relative viability (NCI-H661; first compound 0.05 µM): 0.87
- relative viability (NCI-H661; first compound 0.1581 µM): 0.988
- relative viability (NCI-H661; first compound 0.5 µM): 1
- relative viability (EPLC-272H; first compound 0.005 µM): 0.707
- relative viability (EPLC-272H; first compound 0.05 µM): 0.766
- relative viability (EPLC-272H; first compound 0.1581 µM): 0.712
- relative viability (EPLC-272H; first compound 0.5 µM): 0.764
- relative viability (PC-14; first compound 0.005 µM): 0.898
- relative viability (PC-14; first compound 0.01581 µM): 0.981
- relative viability (PC-14; first compound 0.05 µM): 1.27
- relative viability (PC-14; first compound 0.1581 µM): 0.941
- relative viability (PC-14; first compound 0.5 µM): 0.838
- relative viability (NCI-H322M; first compound 0.005 µM): 1.03
- relative viability (NCI-H322M; first compound 0.01581 µM): 1.19
- relative viability (NCI-H322M; first compound 0.05 µM): 0.795
- relative viability (NCI-H322M; first compound 0.1581 µM): 0.992
- relative viability (NCI-H322M; first compound 0.5 µM): 1.1
- relative viability (NCI-H23; first compound 0.005 µM): 1.04
- relative viability (NCI-H23; first compound 0.01581 µM): 1.1
- relative viability (NCI-H23; first compound 0.05 µM): 1.08
- relative viability (NCI-H23; first compound 0.1581 µM): 0.768
- relative viability (NCI-H23; first compound 0.5 µM): 0.882
- relative viability (RERF-LC-KJ; first compound 0.005 µM): 0.841
- relative viability (RERF-LC-KJ; first compound 0.01581 µM): 0.896
- relative viability (RERF-LC-KJ; first compound 0.05 µM): 0.844
- relative viability (RERF-LC-KJ; first compound 0.1581 µM): 0.942
- relative viability (RERF-LC-KJ; first compound 0.5 µM): 0.849
- relative viability (COR-L 105; first compound 0.005 µM): 1.17
- relative viability (COR-L 105; first compound 0.01581 µM): 1.46
- relative viability (COR-L 105; first compound 0.05 µM): 1.31
- relative viability (COR-L 105; first compound 0.1581 µM): 0.865
- relative viability (COR-L 105; first compound 0.5 µM): 0.979
- relative viability (NCI-H2347; first compound 0.005 µM): 1.42
- relative viability (NCI-H2347; first compound 0.05 µM): 0.652
- relative viability (NCI-H2347; first compound 0.1581 µM): 0.665
- relative viability (NCI-H2347; first compound 0.5 µM): 0.913
- relative viability (HCC-78; first compound 0.005 µM): 0.596
- relative viability (HCC-78; first compound 0.01581 µM): 0.663
- relative viability (HCC-78; first compound 0.1581 µM): 0.591
- relative viability (HCC-78; first compound 0.5 µM): 0.595
- relative viability (201T; first compound 0.005 µM): 1.2
- relative viability (201T; first compound 0.01581 µM): 1.43
- relative viability (201T; first compound 0.05 µM): 1.06
- relative viability (201T; first compound 0.1581 µM): 1.12
- relative viability (201T; first compound 0.5 µM): 1.03
- relative viability (HCC-827; first compound 0.005 µM): 0.914
- relative viability (HCC-827; first compound 0.01581 µM): 1.05
- relative viability (HCC-827; first compound 0.05 µM): 0.832
- relative viability (HCC-827; first compound 0.1581 µM): 1.03
- relative viability (HCC-827; first compound 0.5 µM): 1.01
- relative viability (LCLC-97TM1; first compound 0.005 µM): 0.972
- relative viability (LCLC-97TM1; first compound 0.01581 µM): 0.984
- relative viability (LCLC-97TM1; first compound 0.05 µM): 0.831
- relative viability (LCLC-97TM1; first compound 0.1581 µM): 0.985
- relative viability (LCLC-97TM1; first compound 0.5 µM): 0.921
- relative viability (NCI-H2405; first compound 0.005 µM): 1.04
- relative viability (NCI-H2405; first compound 0.01581 µM): 1.09
- relative viability (NCI-H2405; first compound 0.05 µM): 0.998
- relative viability (NCI-H2405; first compound 0.1581 µM): 1.04
- relative viability (NCI-H2405; first compound 0.5 µM): 1.05
- relative viability (NCI-H647; first compound 0.005 µM): 1.22
- relative viability (NCI-H647; first compound 0.01581 µM): 1.38
- relative viability (NCI-H647; first compound 0.05 µM): 1.27
- relative viability (NCI-H647; first compound 0.1581 µM): 1.24
- relative viability (NCI-H647; first compound 0.5 µM): 1.27
- relative viability (LC-2-ad; first compound 0.005 µM): 0.837
- relative viability (LC-2-ad; first compound 0.01581 µM): 1.29
- relative viability (LC-2-ad; first compound 0.05 µM): 1.02
- relative viability (LC-2-ad; first compound 0.1581 µM): 0.871
- relative viability (LC-2-ad; first compound 0.5 µM): 0.887
